Measurements taken from patent US7351742B2, “Sulfonamide derivatives for the treatment of diseases” (Pfizer Inc., priority 2004, dated 2008).
pEC50: −log10 of the molar value.

Each compound was assayed against T1, human β2 adrenergic receptor (Homo sapiens, UniProt P07550) (assay: β2 cAMP EC50 in CHO cells recombinantly expressing the human β2 adrenergic receptor (cAMP-Flashplate)). Settings: CHOhβ2 cells, 1 hour incubation.
T1 construct: expressed in transfected cells; host or cells: CHO (Chinese Hamster Ovary) cells, CHOhβ2
T1 sequence (P07550 whole entry): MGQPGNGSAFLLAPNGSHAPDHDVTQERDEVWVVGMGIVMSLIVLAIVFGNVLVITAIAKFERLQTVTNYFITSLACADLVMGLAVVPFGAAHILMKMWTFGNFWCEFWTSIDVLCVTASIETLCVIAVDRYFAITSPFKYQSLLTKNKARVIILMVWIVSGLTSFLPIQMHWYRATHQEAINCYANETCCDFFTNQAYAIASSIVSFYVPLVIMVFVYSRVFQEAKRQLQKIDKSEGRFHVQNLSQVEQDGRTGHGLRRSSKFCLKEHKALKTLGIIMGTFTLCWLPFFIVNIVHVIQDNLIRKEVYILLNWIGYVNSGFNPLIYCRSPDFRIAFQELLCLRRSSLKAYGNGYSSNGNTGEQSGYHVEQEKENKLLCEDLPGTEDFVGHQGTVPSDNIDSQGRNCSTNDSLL
Type: cell-based
Description: According to another alternative, the agonist potency for the β2 receptor of the compounds of the formula (1) may also be determined by the measure of the concentration of compound according to the present invention required to produce half maximal effect (EC50) for the β2 receptor.
10 mM/100% DMSO (dimethylsulfoxide) stock of compound is diluted to required top dose in 4% DMSO. This top dose is used to construct a 10-point semi-log dilution curve, all in 4% DMSO. Isoprenaline (Sigma, 1-5627) was used as a standard in every experiment and for control wells on each plate. Data was expressed as % Isoprenaline response.
CHO (Chinese Hamster Ovary) cells recombinantly expressing the human β2 adrenergic receptor (from Kobilka et al., PNAS 84: 46-50, 1987 and Bouvier et al., Mol Pharmacol 33: 133-139 1988 CHOhβ2) were grown in Dulbeccos MEM/NUT MIX F12 (Gibco, 21331-020) supplemented with 10% foetal bovine serum (Sigma, F4135, Lot 90K8404 Exp 09/04), 2 mM glutamine (Sigma, G7513), 500 μg/ml geneticin (Sigma, G7034) and 10 μg/ml puromycin (Sigma, P8833). Cells were seeded to give about 90% confluency for testing.
25 μl/well each dose of compound was transferred into a cAMP-Flashplate® (NEN, SMP004B), with […] as basal controls and 100 nM Isoprenaline as max controls. This was diluted 1:2 by the addition of 25 μl/well PBS. Cells were trypsinised (0.25% Sigma, T4049), washed with PBS (Gibco, 14040-174) and resuspended in stimulation buffer (NEN, SMP004B) to give 1×10^6 cells/ml CHOhB2. Compounds were incubated with 50 μl/well cells for 1 hour. Cells were then lysed by the addition of 100 μl/well detection buffer (NEN, SMP004B) containing 0.18 μCi/ml ^125I-cAMP (NEN, NEX-130) and plates were incubated at room temperature for a further 2 hours. The amount of ^125I-cAMP bound to the Flashplate® was quantified using a Topcount NXT (Packard), normal counting efficiency for 1 minute. Dose-response data was expressed as % Isoprenaline activity and fitted using a four parameter sigmoid fit.
A pEC50 of 10.70 was found for CC(C)(Cc1cccc(CC(=O)NCc2ccccc2)c1)NC[C@H](O)c1ccc(O)c(NS(C)(=O)=O)c1 [Example 1, N-Benzyl-2-(3-{2-[((2R)-2-hydroxy-2-{4-hydroxy-3-[(methylsulfonyl)amino]phenyl}ethyl)amino]-2-methylpropyl}phenyl)acetamide] in this work.
A pEC50 of 10.52 was found for COc1ccc(CNC(=O)Cc2cccc(CC(C)(C)NC[C@H](O)c3ccc(O)c(NS(C)(=O)=O)c3)c2)cc1 [Example 2, 2-(3-{2-[((2R)-2-hydroxy-2-{4-hydroxy-3-[(methylsulfonyl)amino]phenyl}ethyl)amino]-2-methylpropyl}phenyl)-N-(4-methoxybenzyl)acetamide] in this work.
A pEC50 of 10.15 was found for Cc1ccc(CNC(=O)Cc2cccc(CC(C)(C)NC[C@H](O)c3ccc(O)c(NS(C)(=O)=O)c3)c2)cc1 [Example 6, 2-(3-{2-[((2R)-2-hydroxy-2-{4-hydroxy-3-[(methylsulfonyl)amino]phenyl}ethyl)amino]-2-methylpropyl}phenyl)-N-(4-methylbenzyl)acetamide] in this work.
A pEC50 of 10.30 was found for CC(C)(Cc1cccc(CC(=O)NCc2ccc(Cl)cc2)c1)NC[C@H](O)c1ccc(O)c(NS(C)(=O)=O)c1 [Example 12, N-(4-Chlorobenzyl)-2-(3-{2-[((2R)-2-hydroxy-2-{4-hydroxy-3-[(methylsulfonyl)amino]phenyl}ethyl)amino]-2-methylpropyl}phenyl)acetamide] in this work.
A pEC50 of 10.52 was found for CC(C)(Cc1cccc(CC(=O)NCc2ccc(F)cc2)c1)NC[C@H](O)c1ccc(O)c(NS(C)(=O)=O)c1 [Example 15, N-(4-Fluorobenzyl)-2-(3-{2-[((2R)-2-hydroxy-2-{4-hydroxy-3-[(methylsulfonyl)amino]phenyl}ethyl)amino]-2-methylpropyl}phenyl)acetamide] in this work.
A pEC50 of 10.10 was found for CC(C)(Cc1cccc(CC(=O)NCc2ccc(Cl)c(Cl)c2)c1)NC[C@H](O)c1ccc(O)c(NS(C)(=O)=O)c1 [Example 17, N-(3,4-Dichlorobenzyl)-2-(3-{2-[((2R)-2-hydroxy-2-{4-hydroxy-3-[(methylsulfonyl)amino]phenyl}ethyl)amino]-2-methylpropyl}phenyl)acetamide] in this work.
A pEC50 of 10.10 was found for CC(C)(Cc1cccc(CC(=O)NCCc2ccccc2)c1)NC[C@H](O)c1ccc(O)c(NS(C)(=O)=O)c1 [Example 25, 2-(3-{2-[((2R)-2-Hydroxy-2-{4-hydroxy-3-[(methylsulfonyl)amino]phenyl}ethyl)amino]-2-methylpropyl}phenyl)-N-(2-phenylethyl)acetamide] in this work.
A pEC50 of 10.05 was found for CC(C)(Cc1cccc(CC(=O)NCCCc2ccccc2)c1)NC[C@H](O)c1ccc(O)c(NS(C)(=O)=O)c1 [Example 26, 2-(3-{2-[((2R)-2-Hydroxy-2-{4-hydroxy-3-[(methylsulfonyl)amino]phenyl}ethyl)amino]-2-methylpropyl}phenyl)-N-(3-phenylpropyl)acetamide] in this work.
A pEC50 of 10.40 was found for CSc1ccccc1CNC(=O)Cc1cccc(CC(C)(C)NC[C@H](O)c2ccc(O)c(NS(C)(=O)=O)c2)c1 [Example 31, 2-(3-{2-[((2R)-2-Hydroxy-2-{4-hydroxy-3-[(methylsulfonyl)amino]phenyl}ethyl)amino]-2-methylpropyl}phenyl)-N-[2-(methylthio)benzyl]acetamide] in this work.
A pEC50 of 10.22 was found for Cc1ccc(CNC(=O)Cc2cccc(C[C@@H](C)NC[C@H](O)c3ccc(O)c(NS(C)(=O)=O)c3)c2)cc1C [Example 38, N-(3,4-Dimethylbenzyl)-2-(3-{(2R)-2-[((2R)-2-hydroxy-2-{4-hydroxy-3-[(methylsulfonyl)amino]phenyl}ethyl)amino]propyl}phenyl)acetamide] in this work.
A pEC50 of 10.30 was found for C[C@H](Cc1cccc(CC(=O)NCc2ccc(Cl)c(Cl)c2)c1)NC[C@H](O)c1ccc(O)c(NS(C)(=O)=O)c1 [Example 39, N-(3,4-Dichlorobenzyl)-2-(3-{(2R)-2-[((2R)-2-hydroxy-2-{4-hydroxy-3-[(methylsulfonyl)amino]phenyl}ethyl)amino]propyl}phenyl)acetamide] in this work.
A pEC50 of 10.22 was found for C[C@H](Cc1cccc(CC(=O)NCc2ccc(C(F)(F)F)cc2)c1)NC[C@H](O)c1ccc(O)c(NS(C)(=O)=O)c1 [Example 45, 2-(3-{(2R)-2-[((2R)-2-Hydroxy-2-{4-hydroxy-3-[(methylsulfonyl)amino]phenyl}ethyl)amino]propyl}phenyl)-N-[4-(trifluoromethyl)benzyl]acetamide] in this work.
A pEC50 of 10.70 was found for C[C@H](Cc1cccc(CC(=O)NCc2ccccn2)c1)NC[C@H](O)c1ccc(O)c(NS(C)(=O)=O)c1 [Example 60, 2-(3-{(2R)-2-[((2R)-2-Hydroxy-2-{4-hydroxy-3-[(methylsulfonyl)amino]phenyl}ethyl)amino]propyl}phenyl)-N-(pyridin-2-ylmethyl)acetamide] in this work.
A pEC50 of 10.10 was found for CC(C)(Cc1ccc(CC(=O)NCc2cc(C(F)(F)F)ccc2Cl)cc1)NC[C@H](O)c1ccc(O)c(NS(C)(=O)=O)c1 [Example 67, N-[2-Chloro-5-(trifluoromethyl)benzyl]-2-(4-{2-[((2R)-2-hydroxy-2-{4-hydroxy-3-[(methylsulfonyl)amino]phenyl}ethyl)amino]-2-methylpropyl}phenyl)acetamide] in this work.
A pEC50 of 10.70 was found for C[C@H](Cc1ccc(CC(=O)NCc2ccccc2)cc1)NC[C@H](O)c1ccc(O)c(NS(C)(=O)=O)c1 [Example 76, N-Benzyl-2-(4-{(2R)-2-[((2R)-2-hydroxy-2-{4-hydroxy-3-[(methylsulfonyl)amino]phenyl}ethyl)amino]propyl}phenyl)acetamide] in this work.
